The text below walks through data of ChEMBL document CHEMBL3994619, “Inhibition of invasion by N-trans-feruloyloctopamine via AKT, p38MAPK and EMT related signals in hepatocellular carcinoma cells” (Bioorg Med Chem Lett, 2017).

The structures appear in SMILES notation. The source made the active and inactive calls. No cut-off for these calls is given here.

The subject of series [1] is Huh-7. As to the kind of experiment: Antiproliferative activity against human HuH7 cells assessed as reduction in cell viability after 48 hrs by CCK8 assay. The note with it: Huh-7, 48 h. The series is classed as functional, cell-based.
Series [2] relates to HCCLM3. Kind of series: Antiproliferative activity against human HCCLM3 cells assessed as reduction in cell viability after 48 hrs by CCK8 assay. In kind it is functional, cell-based. The note with it: HCCLM3, 48 h.
Series [3] deals with HCCLM3. Kind of series: Antimigratory activity in human HCCLM3 cells assessed as wound closure at 2 mM after 48 hrs by inverted microscopic method. The series is classed as functional, cell-based.
Series [4] relates to Huh-7. Kind of series: Antimigratory activity in human HuH7 cells assessed as wound closure at 2 mM after 48 hrs by inverted microscopic method. In kind it is functional, cell-based.
The test system of series [5] is Huh-7. Kind of series: Anti-invasive activity in human HuH7 cells assessed as invasive cell count at 2 mM after 48 hrs using Giemsa dye by matrigel based microscopic method (reference value: 36 +/- 6). In kind it is functional.
For series [6], the system named is HCCLM3. As to the kind of experiment: Anti-invasive activity in human HCCLM3 cells assessed as invasive cell count at 2 mM after 48 hrs using Giemsa dye by matrigel based microscopic method (reference value: 64.7 +/- 9.3). The series is classed as functional.
Series [7] deals with Transcription factor p65 (Homo sapiens) (UniProt Q04206). Kind of series: Effect on p65 phosphorylation in human HCCLM3 cells at 2 mM after 48 hrs by western blot analysis. In kind it is cell-based.
In series [8] the target is Mitogen-activated protein kinase; ERK1/ERK2 (Homo sapiens) (UniProt P27361+P28482). Kind of series: Effect on ERK1/2 phosphorylation in human HCCLM3 cells at 2 mM after 48 hrs by western blot analysis. In kind it is cell-based.
The species entered for series [9] is Homo sapiens. Kind of series: Reduction in Akt phosphorylation in human HuH7 cells at 2 mM after 48 hrs by western blot analysis. In kind it is cell-based.
The species entered for series [10] is Homo sapiens. Kind of series: Reduction in Akt phosphorylation in human HCCLM3 cells at 2 mM after 48 hrs by western blot analysis. In kind it is cell-based.
Series [11] deals with T1, MAP kinase p38 (Homo sapiens) (UniProt O15264+Q15759+Q16539+P53778). Kind of series: Reduction in p38 phosphorylation in human HuH7 cells at 2 mM after 48 hrs by western blot analysis. The series is classed as cell-based.
Series [12] concerns the target T1, MAP kinase p38 (Homo sapiens). As to the kind of experiment: Reduction in p38 phosphorylation in human HCCLM3 cells at 2 mM after 48 hrs by western blot analysis. The series is classed as cell-based.
Series [13] deals with HCCLM3. Kind of series: Upregulation of E-cadherin in human HCCLM3 cells after 48 hrs by western blot analysis. The series is classed as functional, cell-based.
For series [14], the system named is HCCLM3. Kind of series: Downregulation of slug in human HCCLM3 cells at 2 mM after 48 hrs by western blot analysis. In kind it is functional, cell-based.
Series [15] relates to HCCLM3. As to the kind of experiment: Cytotoxicity against human HCCLM3 cells after 48 hrs by CCK8 assay. In kind it is cell-based. The note with it: hcclm3, 48 h.

Chain of Transcription factor p65 (Homo sapiens) (Q04206 whole entry): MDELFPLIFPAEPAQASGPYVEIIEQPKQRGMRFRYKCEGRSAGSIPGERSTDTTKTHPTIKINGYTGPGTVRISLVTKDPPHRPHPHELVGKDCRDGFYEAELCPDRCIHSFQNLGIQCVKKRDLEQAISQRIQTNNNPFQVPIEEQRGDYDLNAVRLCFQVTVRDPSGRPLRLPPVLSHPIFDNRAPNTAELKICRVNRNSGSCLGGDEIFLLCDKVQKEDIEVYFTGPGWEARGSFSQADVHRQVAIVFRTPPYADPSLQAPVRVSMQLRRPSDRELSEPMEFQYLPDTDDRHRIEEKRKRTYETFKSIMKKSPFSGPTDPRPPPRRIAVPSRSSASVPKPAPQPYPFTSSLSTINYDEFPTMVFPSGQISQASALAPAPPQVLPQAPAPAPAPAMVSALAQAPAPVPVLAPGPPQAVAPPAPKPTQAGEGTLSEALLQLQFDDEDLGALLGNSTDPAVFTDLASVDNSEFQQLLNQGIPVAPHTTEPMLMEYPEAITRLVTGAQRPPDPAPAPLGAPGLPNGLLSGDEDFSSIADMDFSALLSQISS
Chain of Mitogen-activated protein kinase; ERK1/ERK2 (Homo sapiens) (P27361 whole entry, looked up): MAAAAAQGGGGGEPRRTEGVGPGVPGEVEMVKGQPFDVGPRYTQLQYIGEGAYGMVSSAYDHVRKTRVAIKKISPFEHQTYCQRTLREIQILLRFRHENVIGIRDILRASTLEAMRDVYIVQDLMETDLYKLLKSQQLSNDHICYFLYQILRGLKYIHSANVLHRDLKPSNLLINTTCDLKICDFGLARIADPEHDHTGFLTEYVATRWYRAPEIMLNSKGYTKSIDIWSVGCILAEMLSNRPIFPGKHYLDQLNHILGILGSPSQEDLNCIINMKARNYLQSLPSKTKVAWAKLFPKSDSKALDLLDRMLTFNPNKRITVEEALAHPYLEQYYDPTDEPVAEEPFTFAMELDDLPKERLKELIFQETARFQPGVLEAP
Chain of Mitogen-activated protein kinase; ERK1/ERK2 (Homo sapiens) (P28482 whole entry, looked up): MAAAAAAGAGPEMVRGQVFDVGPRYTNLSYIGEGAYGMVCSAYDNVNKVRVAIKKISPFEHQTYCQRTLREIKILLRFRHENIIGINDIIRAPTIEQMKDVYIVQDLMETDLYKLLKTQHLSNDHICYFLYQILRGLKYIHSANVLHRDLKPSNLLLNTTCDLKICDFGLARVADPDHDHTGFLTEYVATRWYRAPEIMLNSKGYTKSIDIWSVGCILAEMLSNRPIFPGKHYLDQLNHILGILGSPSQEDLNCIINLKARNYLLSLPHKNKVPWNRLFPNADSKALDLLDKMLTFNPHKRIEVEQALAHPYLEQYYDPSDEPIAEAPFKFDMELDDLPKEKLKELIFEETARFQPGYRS

As to `O=c1[nH]cc(F)c(=O)[nH]1` [FLUOROURACIL], the 50% inhibitory concentration (IC50) with Huh-7 [1] stood at 2.98 mM; in the series on HCCLM3 [2], 1.84 mM.
Take `COc1cc(/C=C/C(=O)NCC(O)c2ccc(O)cc2)ccc1O` (configuration not stated): the IC50 in the series with Huh-7 [1] worked out at 1.99 mM; in the series with HCCLM3 [2], 2.27 mM. The result (in the series with HCCLM3 [3]; in the series with Huh-7 [4]; in series [7]; in series [8]) was inactive. The Activity in the series on Huh-7 [5] was 11.7; in the series on HCCLM3 [6], 23.3; with HCCLM3 [15], “Non-Toxic”. Also, the result (in the series listed under Homo sapiens [9]; in the series filed under Homo sapiens [10]; in series [11]; in series [12]; with HCCLM3 [13]; in the series with HCCLM3 [14]) was Active.
